Reference: US8075777B2, “Process for the separation of diastereomers” (E. I. du Pont de Nemours and Company, priority 2007, dated 2011)

Columns and labels:
[1] = assay type: physicochemical
From the text: The separation of the erythro or threo diastereomer from a mixture thereof in HFC-4310mee involves one of the diastereomers being soluble to a greater extent in at least one ionic liquid than the other diastereomer is. In order to study this type of behavior, liquid-liquid equilibrium (LLE) and cloud point measurements on samples of HFC-4310mee were made as described in Examples 1 to 4. […]
Initially, the samples were mixed at room temperature (293.2 K) by vigorously shaking the sample containers. […] The water bath was stirred with an agitator (Arrow Engineering Co., Inc. model 1750, Hillside, N.J.) and the temperature measured with a thermocouple (Fluke Corporation, model 5211 thermometer, Everett, Wash.). The Fluke thermometer was calibrated using a standard platinum resistance thermometer (SPRT model 5699, Hart Scientific, American Fork, Utah, range 73 to 933 K) and readout (Blackstack model 1560 with SPRT module 2560). […]
The water bath temperature was initially set at about 283 K, and the sample containers were rocked back and forth. […] The mixing and measurement procedure was repeated each day and the heights plotted as a function of time until no further change in the heights was detected. […]

[2] = Cloud-point measurements / LCST of HFC-4310mee threo isomers plus ionic liquids; assay type: physicochemical
From the text: Starting at ambient temperature of about 293 K, where two liquid phases existed, the temperature was lowered (20 K/h) with manual mixing in a constant temperature bath (Tamson Instruments, TV4000LT, Zoetermeer, Netherlands) until only a single phase existed. The bath temperature was calibrated with the NIST traceable SPRT mentioned previously. Achieving a single phase with the mixtures prepared using [emim][BF4] involved going to a lower temperature than was required to achieve a single phase with the mixtures prepared using [bmim][PF6] and [bmim][BF4]. In addition, the rate of decrease in temperature had to be decreased from 20 to 5 K/h with vigorous manual mixing to prevent the ionic-liquid rich phase from solidifying. Sufficient time with vigorous mixing allowed for mixtures containing 70 mole % and higher threo-H and threo-D isomers with [emim][BF4] to become a single phase at a temperature of 240 K. Once the samples were single phase the temperature was slowly raised 2 K/h until a cloud layer became visible inside the tube. The temperature was recorded for each sample when the cloud layer formed and the temperature was slowly raised until all samples had reached the cloud point.

[3] = NRTL activity model correlation of LLE data (binary interaction parameters, equation 5); assay type: physicochemical; design: key to τ12^(0) / τ21^(0): constant term in τij = τij(0) + τij(1)/T + τij(2)T (NRTL, α=0.2); settings: non-deuterated, α=0.2
From the text: Observed LLE data have been correlated with the NRTL (non-random two liquid) solution model as described in Shiflett, M. B. and Yokozeki, A. (Vapor-liquid-liquid equilibria of pentafluoroethane and ionic liquid [bmim][PF6] mixtures studied with the volumetric method, J. Phys. Chem. B (2006) 110:14436-14443); and in Shiflett, M. B. and Yokozeki, A. (Vapor-liquid-liquid equilibria of hydrofluorocarbons+1-butyl-3-methylimidazolium hexafluorophosphate, J. Chem. & Eng. Data (2006) 51:1931-1939).
The binary activity coefficients of the NRTL are given by:
[formula] where G12≡exp(−ατ12), and G21≡exp(−ατ21) (3)
α=0.2 (assumed to be a constant of 0.2 in this work).
xi=mole fraction of the i-th species.
The temperature-dependent binary interaction parameter (τij) is modeled here by a three term empirical equation: τ12=τ12^(0)+τ12^(1)/T+τ12^(2)T, and τ21=τ21^(0)+τ21^(1)/T+τ21^(2)T (5)
The binary LLE (L1 for liquid 1 and L2 for liquid 2) are mathematically described by the following equilibrium condition: γi^L1xi^L1=γi^L2xi^L2 (6) Thus, the two adjustable parameters τ12 and τ21 at a given T can be determined from one set of LLE experimental (volumetric method) data, using eq 6 (two nonlinearly coupled equations). We obtained several sets of such LLE data and can obtain τ12 and τ21 at respective T. Then, the empirical parameters in eq 5 were determined and are shown in Example 5, Table 5, where results for only the non-deuterated isomers with ionic liquids are given, since results for the deuterated isomer cases are similar to those in Table 5.

[4] = Single stage liquid-liquid extraction of HFC-4310mee with [bmim][BF4] in separatory funnel, GC analysis of upper phase; assay type: physicochemical; settings: 7.2 g HFC-4310mee feed (88.8/11.2 vol % threo/erythro) mixed with 15.1 g [bmim][BF4]
Protocol: To evaluate this characterization, a sample of HFC-4310mee was analyzed by gas chromatography and found to contain 88.8 vol % HFC-4310mee-threo and 11.2 vol % HFC-4310mee-erythro diastereomers. A 7.2 gram sample of HFC-4310mee (i.e., the feed) was mixed with 15.1 grams of [bmim][BF4] (i.e., the extractant) in a separator funnel and vigorously mixed and then allowed to separate into two phases. […] [BF4]. The lower phase was separated from the top phase by opening the stopcock valve on the bottom of the separatory funnel and decanting off the lower phase. The remaining upper phase was analyzed by gas chromatography. The upper phase contained 91.8 vol % HFC-4310mee-threo and 8.2 vol % HFC-4310mee-erythro, which is in accordance with the ternary diagrams.

## F[C@H]([C@@H](F)C(F)(F)C(F)(F)F)C(F)(F)F [HFC-4310mee Threo-H, threo-2,3-dihydrodecafluoropentanes]
[1]
  Solubility in the present ionic liquids compared with the erythro-D and erythro-H isomers: more soluble
[2]; [bmim][BF4] system, at about 75 mole %
  LCST (lower critical solution temperature): 307-309 K
[2]; [bmim][BF4], 50.0 ± 0.5 mol % HFC
  Cloud point T/K: 311 ± 1 K
[2]; [bmim][BF4], 59.1 ± 0.5 mol % HFC
  Cloud point T/K: 309 ± 1 K
[2]; [bmim][BF4], 69.8 ± 0.5 mol % HFC
  Cloud point T/K: 308 ± 1 K
[2]; [bmim][BF4], 79.5 ± 0.5 mol % HFC
  Cloud point T/K: 307 ± 1 K
[2]; [bmim][BF4], 91.0 ± 0.5 mol % HFC
  Cloud point T/K: 308 ± 1 K
[2]; [bmim][PF6] system, at about 70 (threo-isomer) mole %
  LCST (lower critical solution temperature): 265-267 K
[2]; [bmim][PF6], 40.6 ± 0.5 mol % HFC
  Cloud point T/K: 270 ± 1 K
[2]; [bmim][PF6], 50.8 ± 0.5 mol % HFC
  Cloud point T/K: 269 ± 1 K
[2]; [bmim][PF6], 60.4 ± 0.5 mol % HFC
  Cloud point T/K: 268 ± 1 K
[2]; [bmim][PF6], 69.7 ± 0.5 mol % HFC
  Cloud point T/K: 265 ± 1 K
[2]; [bmim][PF6], 80.0 ± 0.5 mol % HFC
  Cloud point T/K: 264 ± 1 K
[2]; [bmim][PF6], 90.0 ± 0.5 mol % HFC
  Cloud point T/K: 276 ± 1 K
[2]; [emim][BF4] system, at near 50 mole %
  LCST (lower critical solution temperature): about 250 K
[2]; [emim][BF4], 69.8 ± 0.5 mol % HFC
  Cloud point T/K: 250 ± 3 K
[2]; [emim][BF4], 80.0 ± 0.5 mol % HFC
  Cloud point T/K: 260 ± 2 K
[2]; [emim][BF4], 90.1 ± 0.5 mol % HFC
  Cloud point T/K: 268 ± 1 K
[3]; isomer (1)/[bmim][BF4] (2)
  τ12^(0): 91.1575
  τ12^(1)/K: −1463.8 K
  τ12^(2)/K^−1: −0.1288 K^−1
  τ21^(0): 81.6624
  τ21^(1)/K: −1506.8 K
  τ21^(2)/K^−1: −0.1092 K^−1
[3]; isomer (1)/[bmim][PF6] (2)
  τ12^(0): 145.421
  τ12^(1)/K: −22306.3 K
  τ12^(2)/K^−1: −0.2229 K^−1
  τ21^(0): −37.7767
  τ21^(1)/K: 5492.1 K
  τ21^(2)/K^−1: 0.06485 K^−1
[3]; isomer (1)/[emim][BF4] (2)
  τ12^(0): 50.3746
  τ12^(1)/K: −7994.5 K
  τ12^(2)/K^−1: −0.06965 K^−1
  τ21^(0): −7.2227
  τ21^(1)/K: 1138.3 K
  τ21^(2)/K^−1: 0.0158 K^−1
[4]
  Content in upper phase (extract) by gas chromatography: 91.8 vol %

## [2H]C(F)(C(F)(F)F)C([2H])(F)C(F)(F)C(F)(F)F (stereo not drawn) [HFC-4310mee Threo-D]
[1]
  Solubility in the present ionic liquids compared with the erythro-D and erythro-H isomers: more soluble
[2]; [bmim][BF4], 59.9 ± 0.5 mol % HFC
  Cloud point T/K: 311 ± 1 K
[2]; [bmim][BF4], 69.4 ± 0.5 mol % HFC
  Cloud point T/K: 310 ± 1 K
[2]; [bmim][BF4], 80.1 ± 0.5 mol % HFC
  Cloud point T/K: 309 ± 1 K
[2]; [bmim][BF4], 89.3 ± 0.5 mol % HFC
  Cloud point T/K: 310 ± 1 K
[2]; [bmim][PF6], 40.0 ± 0.5 mol % HFC
  Cloud point T/K: 272 ± 1 K
[2]; [bmim][PF6], 50.0 ± 0.5 mol % HFC
  Cloud point T/K: 271 ± 1 K
[2]; [bmim][PF6], 59.7 ± 0.5 mol % HFC
  Cloud point T/K: 271 ± 1 K
[2]; [bmim][PF6], 69.8 ± 0.5 mol % HFC
  Cloud point T/K: 267 ± 1 K
[2]; [bmim][PF6], 79.7 ± 0.5 mol % HFC
  Cloud point T/K: 267 ± 1 K
[2]; [bmim][PF6], 88.5 ± 0.5 mol % HFC
  Cloud point T/K: 272 ± 1 K
[2]; [emim][BF4], 69.6 ± 0.5 mol % HFC
  Cloud point T/K: 252 ± 3 K
[2]; [emim][BF4], 80.1 ± 0.5 mol % HFC
  Cloud point T/K: 261 ± 2 K
[2]; [emim][BF4], 89.8 ± 0.5 mol % HFC
  Cloud point T/K: 273 ± 1 K

## F[C@H]([C@H](F)C(F)(F)C(F)(F)F)C(F)(F)F [HFC-4310mee Erythro-H, erythro-2,3-dihydrodecafluoropentanes]
[3]; isomer (1)/[bmim][BF4] (2)
  τ12^(0): −1.1221
  τ12^(1)/K: 1492.7 K
  τ12^(2)/K^−1: 0 K^−1
  τ21^(0): 18.7323
  τ21^(1)/K: −3018.8 K
  τ21^(2)/K^−1: −0.02457 K^−1
[3]; isomer (1)/[bmim][PF6] (2)
  τ12^(0): −5.2583
  τ12^(1)/K: 2803.2 K
  τ12^(2)/K^−1: 0 K^−1
  τ21^(0): 2.97
  τ21^(1)/K: −584.1 K
  τ21^(2)/K^−1: 0 K^−1
[3]; isomer (1)/[emim][BF4] (2)
  τ12^(0): 25.6965
  τ12^(1)/K: −3500.0 K
  τ12^(2)/K^−1: −0.03688 K^−1
  τ21^(0): 72.2927
  τ21^(1)/K: −10850.0 K
  τ21^(2)/K^−1: −0.1125 K^−1
[4]
  Content in upper phase (extract) by gas chromatography: 8.2 vol %
